Measured values taken from patent US20210238187A1, “AZIRIDINE CONTAINING EPOTHILONE ANALOGS, METHODS OF SYNTHESIS, METHODS OF TREATMENT, AND DRUG CONJUGATES” (WILLIAM MARSH RICE UNIVERSITY, priority 2017, published 2021).
Read-outs that look alike come from different tables or passages of the source.

Tests used:
[1] = test system: Tubulin; assay: Tubulin assembly induction; assay type: biochemical
[2] = test system: MCF-7; assay: Cytotoxicity (GI50) assay, MCF-7; assay type: cell-based, human; details: MCF7; human breast cancer cell line; concentration required to decrease cell growth by 50%; read-out: Cancer cell lines GI50, MCF-7
[3] = test system: OVCAR-8; assay: Cytotoxicity (GI50) assay, OVCAR-8; assay type: cell-based, human; details: OVCAR-8; human ovarian cancer cell line; read-out: Cancer cell lines GI50, OVCAR-8
[4] = test system: NCI/ADR-RES; assay: Cytotoxicity (GI50) assay, NCI/ADR-RES; assay type: cell-based, human; details: Homo sapiens, NCI/ADR-RES, read-out: Cancer cell lines GI50, NCI/ADR-RES
[5] = test system: MES SA; assay: Cytotoxicity assay (CellTiter-Glo), MES SA; assay type: cell-based, human; details: MES-SA; human uterine sarcoma cell line; 72 hours, CellTiter-Glo; read-out: Cancer cell lines IC50, MES SA
[6] = test system: MES SA DX; assay: Cytotoxicity assay (CellTiter-Glo), MES SA DX; assay type: cell-based, human; details: Homo sapiens, read-out: Cancer cell lines IC50, MES SA DX
[7] = test system: MES SA, MES SA DX, and HEK 293T; assay: Cytotoxicity (IC50), summary over MES SA, MES SA DX and HEK 293T; assay type: cell-based, human; details: Homo sapiens, read-out: IC50 against all three cell lines (summary of Table 4)
[8] = test system: human cancer cell lines; assay: cells; details: read-out: GI50, range over the cell lines of Table 3
[9] = test system: MDA-MB-435; assay: Cytotoxicity (GI50) assay, MDA-MB-435; assay type: cell-based, human; details: MDA-MB-435; human melanoma cell line; read-out: Cancer cell lines GI50, MDA-MB-435
[10] = test system: SNB-75; assay: Cytotoxicity (GI50) assay, SNB-75; assay type: cell-based, human; details: SNB-75; human glioblastoma cell line; read-out: Cancer cell lines GI50, SNB-75
[11] = test system: human cancer cell lines
[12] = highly drug resistant human ovarian cancer cell line
[13] = MES SA cell line with marked multidrug resistance, 72 hours, CellTiter-Glo

| Compound | EC50 [1] | GI50 [2] | GI50 [3] | GI50 [4] | IC50 [5] | IC50 ([6]; MES-SA, 72 h) | IC50 [7] | GI50 [8] | EC50 ([1]; […]) | GI50 [4, 12] | GI50 [9] | GI50 [10] | IC50 [6, 13] | cytotoxicity (in words) [11] |
| --- | --- | --- | --- | --- | --- | --- | --- | --- | --- | --- | --- | --- | --- | --- |
| CSc1cc(/C=C(\C)[C@@H]2C/C=C(/C)CCC[C@H](C)[C@H](O)[C@@H](C)C(=O)C(C)(C)[C@@H](O)CC(=O)O2)nn1C [compound 73, (4S,7R,8S,9S,13Z,16S)-4,8-Dihydroxy-5,5,7,9,13-pentamethyl-16-{(1E)-1-[1-methyl-5-(methylsulfanyl)-1H-pyrazol-3-yl]prop-1-en-2-yl}oxacyclohexadec-13-ene-2,6-dione] | 9300 nM | 5 nM | 22 nM | 52 nM | 24.1 nM | 39.2 nM | 0.17 to 39.2 nM | 5 to 52 nM |  |  |  |  |  |  |
| CC(=O)[C@@H]1C[C@@H]2N(CCO)[C@]2(C)CCC[C@H](C)[C@H](O)[C@@H](C)C(=O)C(C)(C)[C@@H](O)CC(=O)O1 (stereo partly drawn) [compound 81, (1S,3S,7S,10R,11S,12S,16R)-3-Acetyl-7,11-dihydroxy-17-(2-hydroxyethyl)-8,8,10,12,16-penta-methyl-4-oxa-17-azabicyclo[14.1.0]heptadecane-5,9-dione] |  | 580 nM | 550 nM |  | 36.1 nM |  |  |  | > 60000 nM | > 5000 nM | 200 nM | 360 nM | > 400 nM | significant cytotoxicity |
| CC(=O)O[C@H]1C(=O)[C@@]2(C)[C@H]([C@H](OC(=O)c3ccccc3)[C@]3(O)C[C@H](OC(=O)[C@H](O)[C@@H](NC(=O)c4ccccc4)c4ccccc4)C(C)=C1C3(C)C)[C@]1(OC(C)=O)CO[C@@H]1C[C@@H]2O [paclitaxel, reference compound] |  | 7.8 nM | 26 nM |  | 2.47 nM |  | ≥ 1.76 nM |  | 15000 nM | 4800 nM | 5 nM | 15 nM | > 400 nM |  |
